From patent US12077503B2, “Substituted cyclic amides and their use as herbicides” (FMC CORPORATION, priority 2015, dated 2024)

Key:
Format in all cases: in vivo
Kochia (Kochia scoparia) [1] = assay: Test A preemergence; details: for Plant response rating, Kochia: 125 g ai/ha; for Kochia plant response rating (0 to 100 scale, 0 is no effect, 100 is complete control): 500 g ai/ha, visual injury approx. 10 d
Outline: (§1)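 Preemergence directed soil spray on seeded pots, or postemergence application to plants 2–10 cm, one- to two-leaf. Solvent mixture non-phytotoxic, with surfactant. Scored ~10 d later, visually, 0–100 vs untreated.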

[2] = test system: barnyardgrass (Echinochloa crus-galli); assay: Test A preemergence; details: for Plant response rating, Barnyardgrass: 125 g ai/ha; for Barnyardgrass plant response rating (0 to 100 scale, 0 is no effect, 100 is complete control): 500 g ai/ha, visual injury approx. 10 d
Outline: as §1

[3] = test system: giant foxtail (Setaria faberii); assay: Test A preemergence; details: for Plant response rating, Foxtail, Giant: 125 g ai/ha; for Foxtail, Giant plant response rating (0 to 100 scale, 0 is no effect, 100 is complete control): 500 g ai/ha, visual injury approx. 10 d
Outline: as §1

[4] = test system: pigweed (Amaranthus retroflexus); assay: Test A preemergence; details: Preemergence; for Plant response rating, Pigweed: 125 g ai/ha, visual injury after approximately 10 d, 0 to 100 scale where 0 is no effect and 100 is complete control; for Pigweed plant response rating (0 to 100 scale, 0 is no effect, 100 is complete control): 500 g ai/ha, visual injury approx. 10 d
[5] = test system: ragweed (common ragweed, Ambrosia elatior); assay: Test A preemergence; details: Preemergence; for Plant response rating, Ragweed: 125 g ai/ha, visual injury after approximately 10 d, 0 to 100 scale where 0 is no effect and 100 is complete control; for Ragweed plant response rating (0 to 100 scale, 0 is no effect, 100 is complete control): 500 g ai/ha, visual injury approx. 10 d
Outline: as §1

[6] = test system: ryegrass, Italian (Italian ryegrass, Lolium multiflorum); assay: Test A preemergence; details: Preemergence; for Plant response rating, Ryegrass, Italian: 125 g ai/ha, visual injury after approximately 10 d, 0 to 100 scale where 0 is no effect and 100 is complete control; for Ryegrass, Italian plant response rating (0 to 100 scale, 0 is no effect, 100 is complete control): 500 g ai/ha, visual injury approx. 10 d
Outline: as §1

[7] = test system: Galium (catchweed bedstraw, Galium aparine); assay: Test A postemergence; details: for Galium plant response rating: 125 g ai/ha, postemergence, visual injury rating on 0 to 100 scale (0 no effect, 100 complete control), approx. 10 d; for Plant response rating, Galium: Postemergence, 500 g ai/ha, 0 to 100 scale where 0 is no effect and 100 is complete control
Outline: as §1

Kochia (Kochia scoparia) [8] = assay: Test A postemergence; details: for Kochia plant response rating: 125 g ai/ha, postemergence, visual injury rating on 0 to 100 scale (0 no effect, 100 complete control), approx. 10 d; for Plant response rating, Kochia: Postemergence, 500 g ai/ha, 0 to 100 scale where 0 is no effect and 100 is complete control
Outline: as §1

[9] = test system: barnyardgrass (Echinochloa crus-galli); assay: Test A postemergence; details: for Barnyardgrass plant response rating: 125 g ai/ha, visual injury rating on 0 to 100 scale (0 no effect, 100 complete control), approx. 10 d; for Plant response rating, Barnyardgrass: 500 g ai/ha
Outline: as §1

[10] = test system: blackgrass (Alopecurus myosuroides); assay: Test A postemergence; details: for Blackgrass plant response rating: 125 g ai/ha, visual injury rating on 0 to 100 scale (0 no effect, 100 complete control), approx. 10 d; for Plant response rating, Blackgrass: 500 g ai/ha
Outline: as §1

corn (Zea mays) = assay: Test A postemergence; details: for Corn plant response rating: 125 g ai/ha, visual injury rating on 0 to 100 scale (0 no effect, 100 complete control), approx. 10 d; for Plant response rating, Corn: 500 g ai/ha
Outline: as §1

[11] = test system: giant foxtail (Setaria faberii); assay: Test A postemergence; details: for Foxtail, Giant plant response rating: 125 g ai/ha, postemergence, visual injury rating on 0 to 100 scale (0 no effect, 100 complete control), approx. 10 d; for Plant response rating, Foxtail, Giant: Postemergence, 500 g ai/ha, 0 to 100 scale where 0 is no effect and 100 is complete control
Outline: as §1

[12] = test system: pigweed (Amaranthus retroflexus); assay: Test A postemergence; details: for Pigweed plant response rating: 125 g ai/ha, postemergence, visual injury rating on 0 to 100 scale (0 no effect, 100 complete control), approx. 10 d; for Plant response rating, Pigweed: Postemergence, 500 g ai/ha, 0 to 100 scale where 0 is no effect and 100 is complete control
Outline: as §1

[13] = test system: ragweed (common ragweed, Ambrosia elatior); assay: Test A postemergence; details: for Ragweed plant response rating: 125 g ai/ha, postemergence, visual injury rating on 0 to 100 scale (0 no effect, 100 complete control), approx. 10 d; for Plant response rating, Ragweed: Postemergence, 500 g ai/ha, 0 to 100 scale where 0 is no effect and 100 is complete control
Outline: as §1

[14] = test system: ryegrass, Italian (Italian ryegrass, Lolium multiflorum); assay: Test A postemergence; details: for Ryegrass, Italian plant response rating: 125 g ai/ha, postemergence, visual injury rating on 0 to 100 scale (0 no effect, 100 complete control), approx. 10 d; for Plant response rating, Ryegrass, Italian: Postemergence, 500 g ai/ha, 0 to 100 scale where 0 is no effect and 100 is complete control
Outline: as §1

[15] = test system: wheat (Triticum aestivum); assay: Test A postemergence; details: for Wheat plant response rating: 125 g ai/ha, postemergence, visual injury rating on 0 to 100 scale (0 no effect, 100 complete control), approx. 10 d; for Plant response rating, Wheat: Postemergence, 500 g ai/ha, 0 to 100 scale where 0 is no effect and 100 is complete control
Outline: as §1

[16] = test system: barnyardgrass (Echinochloa crus-galli); assay: Test B flooded paddy test; details: Flood, 250 g ai/ha; 0 to 100 scale where 0 is no effect and 100 is complete control; 13 to 15 d
Outline: (§2)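 Greenhouse paddy pots with 2-leaf stage plants received compound by direct addition to floodwater 3 cm deep, kept at that level. Scored visually at 13–15 d versus controls (0 no effect; 100 complete control).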

[17] = test system: ducksalad (Heteranthera limosa); assay: Test B flooded paddy test; details: Flood, 250 g ai/ha; 0 to 100 scale where 0 is no effect and 100 is complete control; 13 to 15 d
Outline: as §2

rice (Oryra sativa) = assay: Test B flooded paddy test; details: Flood, 250 g ai/ha; 0 to 100 scale where 0 is no effect and 100 is complete control; 13 to 15 d
Outline: as §2

[18] = test system: sedge, umbrella (small-flower umbrella sedge, Cyperus difformis); assay: Test B flooded paddy test; details: Flood, 250 g ai/ha; 0 to 100 scale where 0 is no effect and 100 is complete control; 13 to 15 d
Outline: as §2

[19] = preemergence, 0 to 100 scale (0 no effect, 100 complete control)
[20] = postemergence, 0 to 100 scale, 0 no effect, 100 complete control
[21] = Preemergence, visual injury after approximately 10 d, 0 to 100 scale where 0 is no effect and 100 is complete control
[22] = Postemergence, 0 to 100 scale where 0 is no effect and 100 is complete control

| SMILES | Kochia plant response rating (0 to 100 scale, 0 is no effect, 100 is complete control) (Kochia (Kochia scoparia) [1]; Preemergence) | Barnyardgrass plant response rating (0 to 100 scale, 0 is no effect, 100 is complete control) ([2]; Preemergence) | Foxtail, Giant plant response rating (0 to 100 scale, 0 is no effect, 100 is complete control) ([3]; Preemergence) | Plant response rating, Pigweed [4] | Pigweed plant response rating (0 to 100 scale, 0 is no effect, 100 is complete control) [4] | Plant response rating, Ragweed [5] | Ragweed plant response rating (0 to 100 scale, 0 is no effect, 100 is complete control) [5] | Plant response rating, Ryegrass, Italian [6] | Ryegrass, Italian plant response rating (0 to 100 scale, 0 is no effect, 100 is complete control) [6] | Galium plant response rating [7] | Plant response rating, Galium [7] | Kochia plant response rating (Kochia (Kochia scoparia) [8]) | Plant response rating, Kochia (Kochia (Kochia scoparia) [8]) | Barnyardgrass plant response rating ([9]; postemergence) | Blackgrass plant response rating ([10]; postemergence) | Corn plant response rating (corn (Zea mays); postemergence) | Foxtail, Giant plant response rating [11] | Plant response rating, Foxtail, Giant [11] | Pigweed plant response rating [12] | Plant response rating, Pigweed [12] | also measured |
| --- | --- | --- | --- | --- | --- | --- | --- | --- | --- | --- | --- | --- | --- | --- | --- | --- | --- | --- | --- | --- | --- |
| CC(C)=CCN1CC(c2cccc(C(F)(F)F)c2)C(C(=O)Nc2ccccc2F)C1=O (stereo not drawn) [Compound 478] | 0 | 60 | 80 | 0 | 0 | 0 | 0 | 0 | 0 | 0 | 0 | 0 | 0 | 30 | 0 | 0 | 20 | 60 | 0 | 0 | Plant response rating, Kochia (Kochia (Kochia scoparia) [1]; [19]): 0; Plant response rating, Barnyardgrass [2, 19]: 20; Plant response rating, Foxtail, Giant [3, 19]: 70; Plant response rating, Barnyardgrass [9, 20]: 60; Plant response rating, Blackgrass [10, 20]: 20; Plant response rating, Corn (corn (Zea mays); [20]): 0; Ragweed plant response rating [13]: 0; Plant response rating, Ragweed [13]: 0; Ryegrass, Italian plant response rating [14]: 0; Plant response rating, Ryegrass, Italian [14]: 20; Wheat plant response rating [15]: 0; Plant response rating, Wheat [15]: 20; Plant response rating, Barnyardgrass [16]: 0; Plant response rating, Ducksalad [17]: 0; Plant response rating, Rice (rice (Oryra sativa)): 0; Plant response rating, Sedge, Umbrella [18]: 0 |
| C=C(C)CN1CC(c2cccc(C(F)(F)F)c2)C(C(=O)Nc2cccc(F)c2F)C1=O (stereo not drawn) [Compound 479] | 0 | 30 | 90 | 0 | 0 | 0 | 0 | 0 | 0 | 0 | 0 | 0 | 0 | 0 | 0 | 0 | 0 | 60 | 0 | 0 | Plant response rating, Kochia (Kochia (Kochia scoparia) [1]; [19]): 0; Plant response rating, Barnyardgrass [2, 19]: 0; Plant response rating, Foxtail, Giant [3, 19]: 80; Plant response rating, Barnyardgrass [9, 20]: 50; Plant response rating, Blackgrass [10, 20]: 40; Plant response rating, Corn (corn (Zea mays); [20]): 0; Ragweed plant response rating [13]: 0; Plant response rating, Ragweed [13]: 0; Ryegrass, Italian plant response rating [14]: 0; Plant response rating, Ryegrass, Italian [14]: 0; Wheat plant response rating [15]: 0; Plant response rating, Wheat [15]: 40; Plant response rating, Barnyardgrass [16]: 0; Plant response rating, Ducksalad [17]: 20; Plant response rating, Rice (rice (Oryra sativa)): 0; Plant response rating, Sedge, Umbrella [18]: 0 |
| C=C(C)CN1CC(c2cccc(C(F)(F)F)c2)C(C(=O)Nc2ccccc2F)C1=O (stereo not drawn) [Compound 481] | 0 | 10 | 90 | 0 | 0 | 0 | 0 | 0 | 0 | 0 | 0 | 0 | 0 | 0 | 0 | 0 | 0 | 20 | 0 | 0 | Plant response rating, Kochia (Kochia (Kochia scoparia) [1]; [21]): 0; Plant response rating, Barnyardgrass [2, 21]: 0; Plant response rating, Foxtail, Giant [3, 21]: 50; Plant response rating, Barnyardgrass [9, 22]: 20; Plant response rating, Blackgrass [10, 22]: 0; Plant response rating, Corn (corn (Zea mays); [22]): 0; Ragweed plant response rating [13]: 0; Plant response rating, Ragweed [13]: 0; Ryegrass, Italian plant response rating [14]: 0; Plant response rating, Ryegrass, Italian [14]: 0; Wheat plant response rating [15]: 0; Plant response rating, Wheat [15]: 20; Plant response rating, Barnyardgrass [16]: 0; Plant response rating, Ducksalad [17]: 0; Plant response rating, Rice (rice (Oryra sativa)): 0; Plant response rating, Sedge, Umbrella [18]: 0 |
| C=C(Cl)CN1CC(c2cccc(C(F)(F)F)c2)C(C(=O)Nc2ccccc2F)C1=O (stereo not drawn) [Compound 482] | 0 | 10 | 80 | 0 | 0 | 0 | 0 | 0 | 0 | 0 | 0 | 0 | 0 | 0 | 0 | 0 | 0 | 20 | 0 | 0 | Plant response rating, Kochia (Kochia (Kochia scoparia) [1]; [21]): 0; Plant response rating, Barnyardgrass [2, 21]: 0; Plant response rating, Foxtail, Giant [3, 21]: 70; Plant response rating, Barnyardgrass [9, 22]: 20; Plant response rating, Blackgrass [10, 22]: 0; Plant response rating, Corn (corn (Zea mays); [22]): 0; Ragweed plant response rating [13]: 0; Plant response rating, Ragweed [13]: 0; Ryegrass, Italian plant response rating [14]: 0; Plant response rating, Ryegrass, Italian [14]: 0; Wheat plant response rating [15]: 0; Plant response rating, Wheat [15]: 0; Plant response rating, Barnyardgrass [16]: 0; Plant response rating, Ducksalad [17]: 0; Plant response rating, Rice (rice (Oryra sativa)): 0; Plant response rating, Sedge, Umbrella [18]: 0 |
| O=C(Nc1ccccc1F)C1C(=O)N(CC=CCl)CC1c1cccc(C(F)(F)F)c1 (stereo not drawn) [Compound 483] | 0 | 70 | 90 | 0 | 0 | 0 | 0 | 0 | 30 | 0 | 0 | 0 | 20 | 20 | 0 | 0 | 20 | 70 | 0 | 0 | Plant response rating, Kochia (Kochia (Kochia scoparia) [1]; [21]): 0; Plant response rating, Barnyardgrass [2, 21]: 0; Plant response rating, Foxtail, Giant [3, 21]: 70; Plant response rating, Barnyardgrass [9, 22]: 60; Plant response rating, Blackgrass [10, 22]: 0; Plant response rating, Corn (corn (Zea mays); [22]): 0; Ragweed plant response rating [13]: 0; Plant response rating, Ragweed [13]: 0; Ryegrass, Italian plant response rating [14]: 0; Plant response rating, Ryegrass, Italian [14]: 0; Wheat plant response rating [15]: 0; Plant response rating, Wheat [15]: 0; Plant response rating, Barnyardgrass [16]: 0; Plant response rating, Ducksalad [17]: 30; Plant response rating, Rice (rice (Oryra sativa)): 0; Plant response rating, Sedge, Umbrella [18]: 0 |
